In US4616003A, “N^6 -dihydroxypropyladenosines” (Warner-Lambert Company, priority 1985, dated 1986):
Where two headings read alike, the source gives them in different places. One block for each compound: values may come before it.

Assays:
[1] = tested on: Swiss-Webster male mice; assay: Mouse Activity and Screen Test (MAST): inhibition of spontaneous locomotor activity; type: in vivo; conditions: 1 hour prior to testing
Experimental: Nine unfasted Swiss-Webster male mice weighing 20-30 g are equally divided into three groups for each drug dose to be tested. That is, data for each dose level was generated by three separate groups of three mice each. A minimum of three dose levels (10, 30, and 100 mg/kg) are tested for each drug. Treatments are administered intraperitoneally one hour prior to testing. All dosages are calculated as parent compound and given in volumes of 10 ml/kg. Compounds are dissolved or suspended in 0.2% Methocel. Control animals are injected with Methocel. Immediately following the screen test, the final phase of testing is initiated by placing each group of three mice in one actophotometer (Life Sciences, 22, 1067-1076, 1978). The actophotometer consists of a cylindrical chamber whose center is occupied by another cylinder which contains the illumination for six photocells located on the perimeter of the chamber. Six light-beam interruptions equal one count. Locomotor activity is recorded by computer at ten minute intervals for 60 minutes. Data: The data obtained from the screen test are expressed as percent of mice falling off the screen. Data derived from locomotor activity of drug treated mice are compared to the activity of vehicle treated animals and are expressed as percent inhibition of spontaneous locomotion. All percentages reported for inhibition of locomotion (LI) are based upon data accumulated for one hour. Both phases of testing are graded: A=60-100%; C=31-59%; and N=0-30%. An overall dose rating is obtained by the following criteria: […]

[2] = biological target: T1, adenosine A2 receptor (Rattus norvegicus, UniProt P30543); assay: Adenosine A2 receptor binding (RBA-2), displacement of [3H]NECA
T1 construct: Brains were thawed and then kept on ice while the striata were dissected out; tissue Pel-Freez (Rogers, Ark.); host or cells: rat striatum (Sprague-Dawley brains; Long-Evans gave essentially identical results)
Experimental: Brains from 200-500 g mixed sex Sprague-Dawley rats were purchased from Pel-Freez (Rogers, Ark.). […] Brains were thawed and then kept on ice while the striata were dissected out. […] The suspension was centrifuged at 50,000 xg for ten minutes, the supernatant discarded, the pellet resuspended in 10 vol ice-cold Tris as above, recentrifuged, resuspended at 1 g/5 ml, and stored in plastic vials at -70° C. […] When needed, tissue was thawed at room temperature, disrupted in a Polytron, and kept on ice until used.
All incubations were for 60 minutes at 25° C. in 12×75 mm glass tubes containing 1 ml Tris with 5 mg original tissue weight of rat weight of rat striatal membranes, 4 nM [^3 H]-N-ethyl adenosine-5'-carboxamide ([^3 H]NECA), 50 nM N^6 -cyclopentyladenosine (to eliminate A1 receptor binding), 10 mM MgCl2, 0.1 units/ml of adenosine deaminase and 1% dimethylsulfoxide. N^6 -Cyclopentyladenosine was dissolved at 10 mM in 0.02N HCl and diluted in Tris. […] Test compounds were dissolved at 10 mM in dimethylsulfoxide on the same day as the experiment, and diluted in dimethylsulfoxide to 100× the final incubation concentration. […] [^3 H]NECA was diluted to 40 nM in Tris. The membrane suspension (5 mg/0.79 ml) contained sufficient MgCl2 and adenosine deaminase to give 10 mM and 0.1 units/ml, respectively, final concentration in the incubation. […] After all additions, the rack of tubes was vortexed, and the tubes were then incubated for 60 min at 25° C. in a shaking water bath. The rack of tubes was vortexed an additional time halfway through the incubation.
Incubations were terminated by filtration through 2.4 cm GF/B filters under reduced pressure. Each tube was filtered as follows: the contents of the tube were poured onto the filter, 4 ml of ice-cold Tris were added to the tube and the contents poured onto the filter, and the filter was washed twice with 4 ml of ice-cold Tris. The filtration was complete in about twelve seconds.
Nonspecific binding was defined as binding in the presence of 100 μM N^6 -cyclopentyladenosine, and specific binding was defined as total binding minus nonspecific binding. The IC50 was calculated by weighted nonlinear least squares curve-fitting to the mass-action equation. [formula] where Y is cpm bound
T is cpm total binding without drug
S is cpm specific binding without drug
D is the concentration of drug and
K is the IC50 of the drug
Weighting factors were calculated under the assumption that the standard deviation was proportional to the predicted value of Y. Nonspecific binding was treated as a very large (infinite) concentration of drug in the computer analysis.

[3] = tested on: Swiss-Webster male mice; assay: Mouse Activity and Screen Test (MAST): screen test failure; type: in vivo; conditions: 1 hour prior to testing
Experimental: Nine unfasted Swiss-Webster male mice weighing 20-30 g are equally divided into three groups for each drug dose to be tested. That is, data for each dose level was generated by three separate groups of three mice each. A minimum of three dose levels (10, 30, and 100 mg/kg) are tested for each drug. Treatments are administered intraperitoneally one hour prior to testing. All dosages are calculated as parent compound and given in volumes of 10 ml/kg. Compounds are dissolved or suspended in 0.2% Methocel. Control animals are injected with Methocel. Testing: A two part testing procedure is started one hour postinjection. First, the screen test (ST) is performed (see Pharmac. Biochem. Behav. 6, 351-353, 1977). Briefly this test consists of placing mice on individual wire screens which are then rotated 180 degrees at the start of a 60 second observation period. The number of mice falling off the inverted screen is recorded. Data: The data obtained from the screen test are expressed as percent of mice falling off the screen. Data derived from locomotor activity of drug treated mice are compared to the activity of vehicle treated animals and are expressed as percent inhibition of spontaneous locomotion. All percentages reported for inhibition of locomotion (LI) are based upon data accumulated for one hour. Both phases of testing are graded: A=60-100%; C=31-59%; and N=0-30%. An overall dose rating is obtained by the following criteria: […]

[4] = biological target: T2, adenosine A1 receptor (Rattus norvegicus, UniProt P25099); assay: Adenosine A1 receptor binding (RBA-1), displacement of [3H]-CHA
T2 construct: Whole brain minus cerebellum and brainstem from male Long Evans rats (150-200 g) was homogenized; from tissue; host or cells: rat whole brain minus cerebellum and brainstem, male Long Evans
T2 sequence (P25099 1-326): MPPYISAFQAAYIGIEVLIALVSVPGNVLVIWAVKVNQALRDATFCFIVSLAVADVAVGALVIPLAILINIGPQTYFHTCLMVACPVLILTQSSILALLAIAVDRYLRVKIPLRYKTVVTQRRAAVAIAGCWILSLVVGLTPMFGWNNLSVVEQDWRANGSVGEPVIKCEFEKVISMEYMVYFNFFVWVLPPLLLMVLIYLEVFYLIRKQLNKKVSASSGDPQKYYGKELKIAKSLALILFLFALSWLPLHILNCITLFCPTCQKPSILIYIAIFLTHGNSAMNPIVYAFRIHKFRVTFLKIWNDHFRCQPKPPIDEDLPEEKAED
Experimental: Whole brain minus cerebellum and brainstem from male Long Evans rats (150-200 g) was homogenized in 30 volumes of ice-cold 0.05M Tris-HCl buffer pH 7.7 using a Brinkman Polytron PT-10, (setting number 6 for 20 seconds) and centrifuged for ten minutes at 20,000×g (Sorvall RC-2), 4° C. The supernatant was discarded, and the pellet was resuspended and centrifuged as before. The pellet was resuspended in 20 ml Tris-HCl buffer containing two International Units/ml of adenosine deaminase (Sigma type III from calf intestinal mucosa), incubated at 37° C. for 30 minutes, then subsequently at 0° C. for ten minutes. The homogenate was again centrifuged, and the final pellet was resuspended in ice-cold 0.05M Tris-HCl buffer pH 7.7 to a concentration of 20 mg/ml original wet tissue weight and used immediately.
Tissue homogenate (10 mg/ml) was incubated in 0.05M Tris-HCl buffer pH 7.7 containing 1.0 nM [^3 H]-N^6 -cyclohexyladenosine [^3 H]-CHA) with or without test agents in triplicate for one hour at 25° C. Incubation volume was 2 ml. Unbound [^3 H]-CHA was separated by rapid filtration under reduced pressure through Whatman glass fiber (GF/B) filters. The filters were rinsed three times with 5 ml of ice cold 0.05M Tris-HCl buffer pH 7.7. The radio-labeled ligand retained on the filter was measured by liquid scintillation spectrophotometry after shaking the filters for one hour or longer on a mechanical shaker in 10 ml of Beckman Ready-Solv HP scintillation cocktail.
Nonspecific binding was defined as the binding which occurred in the presence of 1 mM theophylline. […] The Scatchard plot was calculated by linear regression of the line obtained by plotting the amount of radioligand bound (pmoles/gram of tissue) versus [formula] Since the amount of radioligand bound was a small fraction of the total amount added, free radioligand was defined as the concentration (nM) of radioligand added to the incubation mixture. The Hill coefficient was calculated by linear regression of the line obtained by plotting the log of the bound radioligand vs the log of the [formula] The maximal number of binding sites (Bmax) was calculated from the Scatchard plot.

[5] = 1.0 nM [3H]-CHA, rat whole brain minus cerebellum and brainstem, read-out: RBA-1 (IC50, adenosine A1 receptor affinity)

T1 sequence (P30543 whole entry): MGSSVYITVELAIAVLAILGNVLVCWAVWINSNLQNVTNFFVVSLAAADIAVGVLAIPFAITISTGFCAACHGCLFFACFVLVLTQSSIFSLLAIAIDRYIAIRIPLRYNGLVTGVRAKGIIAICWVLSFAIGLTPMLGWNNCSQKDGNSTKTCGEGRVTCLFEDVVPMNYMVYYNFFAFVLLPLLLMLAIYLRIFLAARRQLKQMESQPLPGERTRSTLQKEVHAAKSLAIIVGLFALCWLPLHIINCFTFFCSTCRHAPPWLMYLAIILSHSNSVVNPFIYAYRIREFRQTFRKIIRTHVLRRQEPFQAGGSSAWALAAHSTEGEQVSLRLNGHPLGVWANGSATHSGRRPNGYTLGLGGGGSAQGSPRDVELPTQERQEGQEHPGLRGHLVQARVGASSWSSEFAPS

IC50 ([2]; 4 nM [3H]NECA, 50 nM N6-cyclopentyladenosine, rat striatal membranes, read-out: RBA-2 (IC50, adenosine A2 receptor affinity)): 20 µM | IC50 [4, 5]: 940 nM
Structure (SMILES): CC1(C)OC[C@H](CNc2ncnc3c2ncn3[C@@H]2O[C@H](CO)[C@@H](O)[C@H]2O)O1 [Example 6, (S)-N^6-[2,3-Dihydroxypropylisopropylidene]adenosine]
Inhibition of Mouse Locomotor Activity ([1]; 3.0 mg/kg i.p.): 26% | Inhibition of Mouse Locomotor Activity ([1]; 10 mg/kg i.p.): 47% | Inhibition of Mouse Locomotor Activity ([1]; 30 mg/kg i.p.): 71% | Screen Test Failure ([3]; 3.0 mg/kg i.p.): 0% | Screen Test Failure ([3]; 10 mg/kg i.p.): 0% | Screen Test Failure ([3]; 30 mg/kg i.p.): 0%

inhibition at 100 µM ([2]; at 1 × 10^-4 M, read-out: RBA-2 Inhib): 23% | IC50 [4, 5]: 8800 nM
Structure (SMILES): C[C@H]1O[C@@H](n2cnc3c(NCC4COC(C)(C)O4)ncnc32)[C@H](O)[C@@H]1O (stereo partly drawn) [Example 7, (R,S)-N^6-[2,3-Dihydroxypropyl-isopropylidine]-5'-deoxyadenosine]
Inhibition of Mouse Locomotor Activity ([1]; 3.0 mg/kg i.p.): 13% | Inhibition of Mouse Locomotor Activity ([1]; 10 mg/kg i.p.): 18% | Inhibition of Mouse Locomotor Activity ([1]; 30 mg/kg i.p.): 69% | Screen Test Failure ([3]; 3.0 mg/kg i.p.): 11% | Screen Test Failure ([3]; 10 mg/kg i.p.): 0% | Screen Test Failure ([3]; 30 mg/kg i.p.): 0%

Structure (SMILES): CC(C)CC(=O)OCC(CNc1ncnc2c1ncn2[C@@H]1O[C@H](COC(=O)CC(C)C)[C@@H](OC(=O)CC(C)C)[C@H]1OC(=O)CC(C)C)OC(=O)CC(C)C (stereo partly drawn) [Example 11, N-6[2,3-Dihydroxypropyl-2,3-di-O-isovaleroyl]-2',3',5'-tri-O-isovaleroyl adenosine]
Inhibition of Mouse Locomotor Activity ([1]; 3.0 mg/kg i.p.): 59% | Inhibition of Mouse Locomotor Activity ([1]; 10 mg/kg i.p.): 91% | Inhibition of Mouse Locomotor Activity ([1]; 30 mg/kg i.p.): 79% | Screen Test Failure ([3]; 3.0 mg/kg i.p.): 22% | Screen Test Failure ([3]; 10 mg/kg i.p.): 55% | Screen Test Failure ([3]; 30 mg/kg i.p.): 100%

Structure (SMILES): OC[C@H](O)CNc1ncnc2c1ncn2[C@@H]1O[C@H](CO)[C@@H](O)[C@H]1O [Example 2, (R)-N^6-[2,3-Dihydroxypropyl]adenosine]
Inhibition of Mouse Locomotor Activity ([1]; 10 mg/kg i.p.): 100% | Inhibition of Mouse Locomotor Activity ([1]; 30 mg/kg i.p.): 100% | Inhibition of Mouse Locomotor Activity ([1]; 100 mg/kg i.p.): 100% | IC50 [2]: 11 µM | Screen Test Failure ([3]; 10 mg/kg i.p.): 100% | Screen Test Failure ([3]; 30 mg/kg i.p.): 100% | Screen Test Failure ([3]; 100 mg/kg i.p.): 100% | IC50 [4]: 7.8 nM
